Results from patent publication US20250313535A1, “ALPHA 4 BETA 7 INTEGRIN MODULATORS AND USES THEREOF” (DICE MOLECULES SV, INC., priority 2022, published 2025).
Where two headings read alike, the source gives them in different places.

What was measured:
α4β7 integrin = α4β7 integrin (Homo sapiens (Human), UniProt P13612+P26010); test: Integrin Adhesion Assay: Protocol 4 (MAdCAM-coated plate, RPMI-8866 cells with stable LOF mutation of the ITGB1 gene); type: cell-based
In short: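 RPMI-8866 cells with CRISPR/Cas9 knockout of ITGB1 (2×10^6/mL) were added to MAdCAM-coated wells with compound (1% DMSO) in HEPES/NaCl buffer with 1 mM MnCl2, 0.1 mM CaCl2 and 1% BSA, then incubated 1 h at 37 °C. After four washes, adherent cells were quantified by CellTiter-Glo luminescence. Percent inhibition versus DMSO and control compound was fitted to 4-parameter curves.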

α4β1 integrin = α4β1 integrin (Homo sapiens (Human), UniProt P05556+P13612); test: Integrin Adhesion Assay: Protocol 5 (VCAM-coated plate, RPMI-8866 cells with stable LOF mutation of the ITGB7 gene); type: cell-based
α4β1 integrin, sequence (P13612 34-1032): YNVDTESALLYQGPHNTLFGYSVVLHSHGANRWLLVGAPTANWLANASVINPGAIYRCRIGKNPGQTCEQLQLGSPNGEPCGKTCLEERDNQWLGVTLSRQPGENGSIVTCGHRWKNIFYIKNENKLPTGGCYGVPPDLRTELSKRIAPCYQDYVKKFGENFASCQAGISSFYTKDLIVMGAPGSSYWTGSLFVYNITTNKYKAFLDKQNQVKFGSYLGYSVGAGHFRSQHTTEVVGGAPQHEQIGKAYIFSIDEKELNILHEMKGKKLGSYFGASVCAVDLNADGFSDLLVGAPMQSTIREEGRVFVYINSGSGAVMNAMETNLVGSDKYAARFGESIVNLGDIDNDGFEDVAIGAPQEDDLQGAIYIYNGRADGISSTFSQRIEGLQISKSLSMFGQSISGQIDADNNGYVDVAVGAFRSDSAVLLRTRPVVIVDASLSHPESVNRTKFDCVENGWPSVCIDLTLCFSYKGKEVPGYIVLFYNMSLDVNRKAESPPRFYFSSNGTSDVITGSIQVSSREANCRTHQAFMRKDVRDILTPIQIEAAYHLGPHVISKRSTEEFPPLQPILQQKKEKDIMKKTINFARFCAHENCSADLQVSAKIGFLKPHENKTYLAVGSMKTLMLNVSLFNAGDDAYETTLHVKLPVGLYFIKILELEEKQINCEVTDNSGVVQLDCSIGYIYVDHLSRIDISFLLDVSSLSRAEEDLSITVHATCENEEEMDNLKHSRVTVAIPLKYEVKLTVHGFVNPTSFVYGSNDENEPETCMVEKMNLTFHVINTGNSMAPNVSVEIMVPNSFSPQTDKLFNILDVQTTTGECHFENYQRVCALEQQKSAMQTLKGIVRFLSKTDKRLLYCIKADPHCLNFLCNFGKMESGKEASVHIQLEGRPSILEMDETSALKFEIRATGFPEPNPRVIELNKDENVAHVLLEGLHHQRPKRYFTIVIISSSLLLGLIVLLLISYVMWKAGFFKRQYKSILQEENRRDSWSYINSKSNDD
α4β1 integrin, sequence (P05556 21-798): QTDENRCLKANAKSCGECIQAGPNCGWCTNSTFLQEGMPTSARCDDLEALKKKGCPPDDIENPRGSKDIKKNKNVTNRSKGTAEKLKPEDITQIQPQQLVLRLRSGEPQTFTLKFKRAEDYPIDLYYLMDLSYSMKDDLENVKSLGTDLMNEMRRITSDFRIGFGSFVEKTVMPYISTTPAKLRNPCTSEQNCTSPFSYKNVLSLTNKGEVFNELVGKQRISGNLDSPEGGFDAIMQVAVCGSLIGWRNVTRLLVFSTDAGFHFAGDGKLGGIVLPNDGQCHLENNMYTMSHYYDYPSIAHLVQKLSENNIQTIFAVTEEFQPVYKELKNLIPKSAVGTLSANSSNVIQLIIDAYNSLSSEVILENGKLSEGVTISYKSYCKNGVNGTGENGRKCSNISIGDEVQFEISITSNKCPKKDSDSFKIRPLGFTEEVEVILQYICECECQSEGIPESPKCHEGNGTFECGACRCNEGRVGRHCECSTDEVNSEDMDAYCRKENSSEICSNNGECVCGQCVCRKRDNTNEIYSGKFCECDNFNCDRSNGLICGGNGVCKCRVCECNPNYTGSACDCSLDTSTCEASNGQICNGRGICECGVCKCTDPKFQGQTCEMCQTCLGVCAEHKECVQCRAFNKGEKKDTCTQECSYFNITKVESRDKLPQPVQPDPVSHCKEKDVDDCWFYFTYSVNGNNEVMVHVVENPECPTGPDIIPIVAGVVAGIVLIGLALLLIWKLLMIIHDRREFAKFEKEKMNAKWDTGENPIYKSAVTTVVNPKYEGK
In short: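 RPMI-8866 B cells with CRISPR/Cas9 ITGB7 knockout (clonal, verified by flow cytometry) adhered to VCAM-coated wells for 1 h at 37° C in HEPES/NaCl buffer with 1 mM MnCl2, 0.1 mM CaCl2, 1% BSA, 1% DMSO. Bound cells quantified by CellTiter-Glo luminescence after washing; % inhibition versus DMSO and control, 4-parameter fit.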

[1] = RPMI-8866 cells with stable LOF mutation of the ITGB1 gene, read-out: Mean IC50 α4β7 KO^a
[2] = RPMI-8866 cells with stable LOF mutation of the ITGB7 gene, read-out: Mean IC50 α4β1 KO^b
[3] = Protocol 4, RPMI-8866 cells with LOF mutation of ITGB1, MAdCAM, read-out: Mean IC50 α4β7 KO
[4] = Protocol 5, RPMI-8866 cells with LOF mutation of ITGB7, VCAM, read-out: Mean IC50 α4β1 KO

α4β7 integrin, sequence (P13612 34-1032): as the sequence (P13612 34-1032) above
α4β7 integrin, sequence (P26010 20-798): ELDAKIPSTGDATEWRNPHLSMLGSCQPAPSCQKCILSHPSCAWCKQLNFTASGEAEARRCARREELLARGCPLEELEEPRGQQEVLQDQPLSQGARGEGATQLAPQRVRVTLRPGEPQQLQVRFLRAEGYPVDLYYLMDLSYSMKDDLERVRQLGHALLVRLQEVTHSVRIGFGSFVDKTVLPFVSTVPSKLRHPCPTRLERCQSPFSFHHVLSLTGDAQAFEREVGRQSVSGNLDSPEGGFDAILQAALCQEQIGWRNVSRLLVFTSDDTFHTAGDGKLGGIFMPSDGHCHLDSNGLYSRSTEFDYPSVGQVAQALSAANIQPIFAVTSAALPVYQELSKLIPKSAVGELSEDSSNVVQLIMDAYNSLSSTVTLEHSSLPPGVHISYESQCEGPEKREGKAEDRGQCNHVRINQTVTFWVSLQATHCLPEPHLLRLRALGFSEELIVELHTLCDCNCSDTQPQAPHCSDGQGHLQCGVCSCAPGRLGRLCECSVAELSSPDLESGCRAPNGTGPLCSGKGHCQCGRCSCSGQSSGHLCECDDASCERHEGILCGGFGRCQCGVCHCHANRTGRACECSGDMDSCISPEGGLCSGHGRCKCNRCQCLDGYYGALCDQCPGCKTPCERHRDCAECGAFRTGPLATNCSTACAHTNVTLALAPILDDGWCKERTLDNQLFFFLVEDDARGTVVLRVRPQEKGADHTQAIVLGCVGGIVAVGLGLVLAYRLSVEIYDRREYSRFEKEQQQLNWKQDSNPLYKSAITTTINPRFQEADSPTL

IC50 (α4β7 integrin; [1]) | IC50 (α4β1 integrin; [2]) | IC50 (α4β7 integrin; [3]) | IC50 (α4β1 integrin; [4]) | Compound
< 10 nM | 100 to 1000 nM | – | – | COc1ccc(CN2CCC[C@@H](F)C2)c(OC)c1-c1cccc2c(C[C@H](NC(=O)c3c(C)cccc3F)C(=O)O)cccc12 [Compound 672]
10 to 100 nM | > 1000 nM | – | – | COc1cc2c(c(C(F)(F)F)c1-c1cccc3c(C[C@H](NC(=O)C4(C(F)(F)F)CCN(CC(F)(F)F)CC4)C(=O)O)cccc13)CCN(CC(F)(F)F)C2 [Compound 673]
< 10 nM | 100 to 1000 nM | – | – | COc1cccc(CN2CCCCC2)c1-c1cccc2c(C[C@H](NC(=O)c3c(F)cccc3Cl)C(=O)O)cccc12 [Compound 674]
10 to 100 nM | > 1000 nM | – | – | N#CC1(C(=O)N[C@@H](Cc2cccc3c(-c4ncc(CN5CCCCC5)c5ccccc45)cccc23)C(=O)O)CCN(CC(F)(F)F)CC1 [Compound 677]
< 10 nM | 100 to 1000 nM | – | – | O=C(O)[C@H](Cc1cccc2c(-c3ncc(CN4CCCCC4)c4ccccc34)cccc12)NC(=O)C1(C(F)(F)F)CCN(C2CC(F)(F)C2)CC1 [Compound 681]
< 10 nM | > 1000 nM | – | – | O=C(O)[C@H](Cc1cccc2c(-c3ncc(CN4CCCCC4)c4ccccc34)cccc12)NC(=O)C1(C(F)(F)F)CCN(CCC(F)(F)F)CC1 [Compound 682]
< 10 nM | > 1000 nM | – | – | O=C(O)[C@H](Cc1cccc2c(-c3ncc(CN4CCCCC4)c4ccccc34)cccc12)NC(=O)C1(C(F)(F)F)CCN(CC2(C(F)(F)F)CC2)CC1 [Compound 683]
– | – | 10 to 100 nM | > 1000 nM | Cc1cccc(F)c1C(=O)N[C@@H](Cc1cccc2c(-c3cc(CN4CCCCC4)ccn3)cccc12)C(=O)O [Compound 688]
– | – | < 10 nM | 100 to 1000 nM | O=C(O)[C@H](Cc1cccc2c(-c3ncc(CN4CCC5(CC4)CC5)c4ccccc34)cccc12)NC(=O)C1(C(F)(F)F)CCN(C2COC2)CC1 [Compound 694]
– | – | < 10 nM | > 1000 nM | CN(C)Cc1ccc(-c2cccc3c(C[C@H](NC(=O)C4(C(F)(F)F)CCN(CC(F)(F)F)CC4)C(=O)O)cccc23)c2cnccc12 [Compound 695]
– | – | 10 to 100 nM | > 1000 nM | Cc1cc(C(F)(F)F)cc(F)c1C(=O)N[C@@H](Cc1cccc2c(-c3c(C(F)(F)F)c4cc(CN(C)C)ccc4n(C)c3=O)cccc12)C(=O)O [Compound 700]
– | – | 10 to 100 nM | > 1000 nM | CN(C)Cc1ccc2c(c1)c(C(F)(F)F)c(-c1cccc3c(C[C@H](NC(=O)c4c(F)cccc4CN4CCC(F)(F)CC4)C(=O)O)cccc13)c(=O)n2C [Compound 701]
– | – | < 10 nM | > 1000 nM | O=C(O)[C@H](Cc1cccc2c(-c3ccc(CN4CCCCC4)c4ccncc34)cccc12)NC(=O)C1(C(F)(F)F)CCN(CC(F)(F)F)CC1 [Compound 702]
– | – | < 10 nM | 100 to 1000 nM | COc1ccc(CN(C)C)c(OC(F)(F)F)c1-c1cccc2c(C[C@H](NC(=O)c3c(C)cccc3F)C(=O)O)cccc12 [Compound 703]
– | – | 10 to 100 nM | > 1000 nM | COc1c(CN2CCCCC2)ccc(OC(F)(F)F)c1-c1cccc2c(C[C@H](NC(=O)c3c(C)cccc3F)C(=O)O)cccc12 [Compound 704]
– | – | < 10 nM | 100 to 1000 nM | Cn1c(=O)c(-c2cccc3c(C[C@H](NC(=O)c4c(F)cccc4F)C(=O)O)cccc23)c(C(F)(F)F)c2cc(CCN3CCCC3)ccc21 [Compound 710]
– | – | < 10 nM | 100 to 1000 nM | CN(C)CCc1ccc2c(c1)c(C(F)(F)F)c(-c1cccc3c(C[C@H](NC(=O)c4c(F)cccc4CN4CCC(F)(F)CC4)C(=O)O)cccc13)c(=O)n2C [Compound 711]
– | – | 10 to 100 nM | > 1000 nM | Cc1cccc(F)c1C(=O)N[C@@H](Cc1cccc2c(-c3c(C(F)(F)F)c4cc(CCN5CCC(F)(F)C5)ccc4n(C)c3=O)cccc12)C(=O)O [Compound 712]
– | – | < 10 nM | 100 to 1000 nM | Cc1cccc(F)c1C(=O)N[C@@H](Cc1cccc2c(-c3c(C(F)(F)F)c4cc(CCN5CCCC5)ccc4n(C)c3=O)cccc12)C(=O)O [Compound 713]
– | – | 10 to 100 nM | > 1000 nM | Cc1cccc(F)c1C(=O)N[C@@H](Cc1cccc2c(-c3c(C(F)(F)F)c4cc(CCN5CCC(F)(F)CC5)ccc4n(C)c3=O)cccc12)C(=O)O [Compound 714]
– | – | < 10 nM | > 1000 nM | Cc1c(CCN2CCC(F)(F)CC2)ccnc1-c1cccc2c(C[C@H](NC(=O)C3(C(F)(F)F)CCN(CC(F)(F)F)CC3)C(=O)O)cccc12 [Compound 716]
– | – | < 10 nM | 100 to 1000 nM | Cc1c(CCN2CCCCC2)ccnc1-c1cccc2c(C[C@H](NC(=O)C3(C(F)(F)F)CCN(CC(F)(F)F)CC3)C(=O)O)cccc12 [Compound 717]
– | – | 10 to 100 nM | > 1000 nM | Cc1cc(CN2CCCCC2)cnc1-c1cccc2c(C[C@H](NC(=O)C3(C(F)(F)F)CCN(CC(F)F)CC3)C(=O)O)cccc12 [Compound 721]
– | – | < 10 nM | 10 to 100 nM | COc1cc2c(c(C(F)(F)F)c1-c1cccc3c(C[C@H](NC(=O)C4(C(F)(F)F)CCN(CC(F)(F)F)CC4)C(=O)O)cccc13)CCN(C)C2 [Compound 726]
– | – | < 10 nM | 10 to 100 nM | COc1ccc(CCN2CCCCC2)c(C(F)(F)F)c1-c1cccc2c(C[C@H](NC(=O)C3(C(F)(F)F)CCN(CC(F)(F)F)CC3)C(=O)O)cccc12 [Compound 727]
– | – | < 10 nM | 100 to 1000 nM | COc1cccc(OCCN2CCCCC2)c1-c1cccc2c(C[C@H](NC(=O)C3(C(F)(F)F)CCN(CC(F)(F)F)CC3)C(=O)O)cccc12 [Compound 729]

More lines, now with the values behind:

Compound | IC50 (α4β7 integrin; [1]) | IC50 (α4β1 integrin; [2]) | IC50 (α4β7 integrin; [3]) | IC50 (α4β1 integrin; [4])
COc1ccc(CN2CCC[C@H](F)C2)c(OC)c1-c1cccc2c(C[C@H](NC(=O)c3c(C)cccc3F)C(=O)O)cccc12 [Compound 671] | < 10 nM | 100 to 1000 nM | – | –
COc1cccc(F)c1C(=O)N[C@@H](Cc1cccc2c(-c3c(CN4CCCCC4)cccc3OC)cccc12)C(=O)O [Compound 675] | < 10 nM | 100 to 1000 nM | – | –
CCC1(C(=O)N[C@@H](Cc2cccc3c(-c4ncc(CN5CCCCC5)c5ccccc45)cccc23)C(=O)O)CCN(CC(F)(F)F)CC1 [Compound 676] | < 10 nM | > 1000 nM | – | –
CC1(C(=O)N[C@@H](Cc2cccc3c(-c4ncc(CN5CCCCC5)c5ccccc45)cccc23)C(=O)O)CC2CCC(C1)N2CC(F)(F)F (stereo partly shown) [Compound 679] | 10 to 100 nM | > 1000 nM | – | –
O=C(O)[C@H](Cc1cccc2c(-c3ncc(CN4CCCCC4)c4ccccc34)cccc12)NC(=O)C1(C(F)(F)F)CCN([C@H]2COCC2(F)F)CC1 [Compound 680] | < 10 nM | 100 to 1000 nM | – | –
CC1(C(=O)N[C@@H](Cc2cccc3c(-c4ncc(CN5CCCCC5)c5ccccc45)cccc23)C(=O)O)CC2CCC(C1)N2CC(F)F (stereo partly shown) [Compound 684] | 10 to 100 nM | > 1000 nM | – | –
CC1(C(=O)N[C@@H](Cc2cccc3c(-c4ncc(CN5CCCCC5)c5ccccc45)cccc23)C(=O)O)CC2CCC(C1)N2C1COC1 (stereo partly shown) [Compound 685] | 10 to 100 nM | > 1000 nM | – | –
CC1(C(=O)N[C@@H](Cc2cccc3c(-c4ncc(CN5CCCCC5)c5ccccc45)cccc23)C(=O)O)CCN(CC(F)F)CC1 [Compound 687] | – | – | < 10 nM | > 1000 nM
CN(C)Cc1ccc2c(c1)c(C(F)(F)F)c(-c1cccc3c(C[C@H](NC(=O)C4(C(F)(F)F)CCN(CC(F)(F)F)CC4)C(=O)O)cccc13)c(=O)n2C [Compound 696] | – | – | < 10 nM | 10 to 100 nM
Cc1cccc(F)c1C(=O)N[C@@H](Cc1cccc2c(-c3c(C(F)(F)F)c4cc(CCN(C)C)ccc4n(C)c3=O)cccc12)C(=O)O [Compound 706] | – | – | < 10 nM | 100 to 1000 nM
CN(C)CCc1ccc2c(c1)c(C(F)(F)F)c(-c1cccc3c(C[C@H](NC(=O)C4(C(F)(F)F)CCN(CC(F)(F)F)CC4)C(=O)O)cccc13)c(=O)n2C [Compound 707] | – | – | < 10 nM | 10 to 100 nM
Cn1c(=O)c(-c2cccc3c(C[C@H](NC(=O)c4c(F)cccc4F)C(=O)O)cccc23)c(C(F)(F)F)c2cc(CCN3CCC3)ccc21 [Compound 709] | – | – | < 10 nM | > 1000 nM
O=C(O)[C@H](Cc1cccc2c(-c3nccc4ccc(CCN5CCCCC5)cc34)cccc12)NC(=O)C1(C(F)(F)F)CCN(CC(F)(F)F)CC1 [Compound 718] | – | – | < 10 nM | > 1000 nM
COc1ccc2c(CN3CCCCC3)ccnc2c1-c1cccc2c(C[C@H](NC(=O)C3(C(F)(F)F)CCN(CC(F)(F)F)CC3)C(=O)O)cccc12 [Compound 722] | – | – | < 10 nM | 10 to 100 nM
O=C(O)[C@H](Cc1cccc2c(-c3nccc4ccccc34)cccc12)NC(=O)C1(C(F)(F)F)CCN(CC(F)(F)F)CC1 [Compound 723] | – | – | 10 to 100 nM | > 1000 nM
COc1cc2c(c(C)c1-c1cccc3c(C[C@H](NC(=O)C4(C(F)(F)F)CCN(CC(F)(F)F)CC4)C(=O)O)cccc13)CN(C)CC2 [Compound 724] | – | – | < 10 nM | 10 to 100 nM
O=C(O)[C@H](Cc1cccc2c(-c3nccc4ccc(CCCN5CCCCC5)cc34)cccc12)NC(=O)C1(C(F)(F)F)CCN(CC(F)(F)F)CC1 [Compound 725] | – | – | < 10 nM | > 1000 nM
COc1cc(CN2CCCCC2)c2cccnc2c1-c1cccc2c(C[C@H](NC(=O)C3(C(F)(F)F)CCN(CC(F)(F)F)CC3)C(=O)O)cccc12 [Compound 728] | – | – | < 10 nM | 100 to 1000 nM
